In one series the test system is HD fibroblasts (CAG)180. Put plainly: small-pool PCR across HD repeat tract, HD primary fibroblasts GM09197. The format is cell-based, human. Particulars: 50 uM NA, 40 days. As to the method: The construction of the HT1080-(CAG)850 cell model was described previously (Sathasivam et al., 1997, Hum. Genet., 99:692-5). Briefly, HT1080 (ATCC) human fibrosarcoma cells were co-transfected with a plasmid (LC15-R) containing 800-850 (CTG)●(CAG) repeats (Nakatani et al., 2005, Nat. Chem. Biol., 1:39-43) and a plasmid encoding PhiC31 integrase. Transfection was performed with a Nucleofector (Lonza, Basel, Switzerland), and stably transfected clones were selected with puromycin. […] The HT1080-non-transcribing (CAG)850 cell model was established by transfecting a plasmid modified from pLC16 by inserting an additional SV40 polyadenylation signal downstream of the repeats (in addition to the original polyadenylation signals located upstream of the repeats), so that CAG/CTG repeats are floxed by transcription-terminator elements. The AttB-PhiC31 system has been widely used for single copy integration. […] The HT1080 model cells and an HD primary fibroblast cell line, GM09197 (Coriell Biorepository) with a large expanded allele of 180 CAG repeats and a non-expanded allele of 23 repeats (Sathasivam et al., 1997, Hum. Genet., 99:[…]), the HD primary fibroblast cell line, GM02191 (Coreill Biorepository) with an expanded allele of 43 CAG repeats and a non-expanded allele of 19 repeats, were cultured at 37° C. with 5% CO2 in Dulbecco's modified Eagle's medium supplemented with 10% fetal bovine serum and 1% penicillin/streptomycin. Cells were treated with or without continuous exposure to 50-μM NA for 30 days (HT1080 cells) or for 40 days (fibroblast cells). For experiments on non-proliferating cells, HT1080 cells were grown to confluence and then treated for the same period. WST-1 assay was performed according to the manufacturer's instructions (Roche, Basel, Switzerland). All cell lines were tested to be free of Mycoplasma. Three biological replicates were performed for each experiment.
Genomic DNA was extracted from HT1080-(CAG)850 clones and HD primary fibroblasts using the Gentra Puregene Cell Kit (Qiagen, Valencia, Calif.). The expanded (CTG)●(CAG) repeats were sized by small-pool PCR (sp-PCR) followed by Southern blot as described previously (Sathasivam et al., 1997, Hum. Genet., 99:692-5). For HT1080 models, small-pool PCR (spPCR) was performed with the input of 1.4-1.7 genome equivalents. The repeat size difference in the models is, at most, 3000 base-pairs, therefore, being strictly conservative, a bias toward amplifying the shorter allele can be possible, even under optimized PCR conditions described herein. For HD primary fibroblasts, sp-PCR & Southern blots were performed as described previously with slight modifications (Tome et al., 2013, PLoS Genet., 9:e1003280). Briefly, the PCR primers listed in Table 1 were used, and blots were hybridized with a DIG-labeled (CAG)7 locked nucleic acid probe (Nakamori et al. 2009, Neuromuscul. Disord., 19:759-62). At least 50 alleles were analyzed for each of the three experiments (more than 150 alleles for a total study). Repeat analyses are summarized in Table 2, compiled from complete small-pool-PCR datasets for each repetition of each experiment. For the histograms in FIGS. 4D, 4E, 10, 11, 5B, 5D, 5E, 14 and 15B, the Y-axis, “% of repeat population” was calculated by determining the proportion of >50 individual small-pool PCR reactions across the CAG repeat tract, that harbored a certain size of repeat product with a certain length. Cell clones were grown 30 or 40 days with or without NA (see, for example, Sathasivam et al., 1997, Hum. Genet., 99:692-5). Specifically, the histograms of repeat length distributions were from at least two different cell clones. Length distributions were determined as follows: Small-pool PCR followed by Southern blot for analysis of CAG/CTG repeat length.

Series [1] deals with HT1080-(CAG)850 cells. The experiment in a line: cellular distribution by confocal microscopy. The format is cell-based, human. How it is done:
(§1) Scale bar represents 20 μm. […] The cell viability was estimated with WST-1 assays. Values represent the means of three independent measures±SD. […] Error bars indicate the SD of triplicate experiments. […] The dashed line indicates the peak CAG size. Allele lengths are grouped in bins spanning 10 repeats. More than 230 alleles were sized per group.
HT1080-(CAG)850 cells were incubated with 50-μM NBD-labeled NA for 48 hr and Cell Light Plasma Membrane-RFP, BacMam 2.0 (Life Technologies, Carlsbad, Calif.), then fixed for 15 min at RT with 4% paraformaldehyde and washed 2 times for 10 min in phosphate buffered saline (PBS). Cells were mounted with Vectashield hard-set mounting media that contains DAPI (Vector Laboratories, Burlingame, Calif.). Fluorescence images were obtained using Olympus FV1000D confocal laser scanning microscope (Olympus, Tokyo, Japan).

Series [2] relates to HT1080-(CAG)850 cells. Put plainly: growth curves of cells. The format is cell-based, human. The note with it: 50 μM NA.
Source text: as §1

The test system of series [3] is CAG/CTG R-loops processed by neuron-like human SH-SY5Y cell extracts. The experiment in a line: R-loop processing by SH-SY5Y cell extracts, STRIP assay. In kind it is biochemical. Particulars: NA 50 μM; p=0.002.
Description: Double-R-loops were then treated with RNaseA or H (labeled “A” or “H”) and incubated with 50 μM of NA. Reaction products were then resolved on 1% agarose gel. […] Pre-formed double-R-loops were processed by terminally differentiated (retinoic acid) human neuron-like cell extracts (SH-SY5Y) in the absence or presence of NA (50 μM), as described and DNA repeat lengths were assessed as expansions, contractions, or stable, by the STRIP assay. […] Transcription products were isolated, processed and transformed in E. coli cells, previously shown to stably maintain the (CAG)79●(CTG)79 lengths. Plasmids isolated from individual bacterial colonies were digested with restriction enzymes to release the repeat containing fragment, resolved on 4% polyacrylamide gels and scored for instability.
R-loop templates prepared from in vitro transcription and RNase A treatments were incubated with NA and then processed by extracts of HeLa or SH-SY5Y neuroblastoma cells, where the latter were terminally differentiated by retinoic acid, as previously described (Panigrahi et al., 2005, Nat. Struct. & Mol. Biol., 12:654-62). […] Miniprep DNA was analyzed for changes in repeat length by analysis of the repeat-containing fragment on 4% polyacrylamide gels. […]
In a further series the test system is r(CAG)9. The note with it: r(CAG)9 immobilization 524 RU; cited from earlier work.
[4] abbreviates: single experiments Ex 1-3, cut-off ±10 repeats.

Several values for one entry are separate records, joined by “and”; a condition that tells them apart may be missing. Equal values may be shown once.

As to naphthyridine-azaquinolone, in the series with HD fibroblasts (CAG)180 (Total), the “% Contraction” value stood at 31.2%, the “% Expansion” value was found to be 13.6%, the “% Unchanged” value was 55.2% and the Average repeat size is reported as 177.5 number of repeats. Also, in the series with HD fibroblasts (CAG)180 (single experiments Ex 1-3), the “% Unchanged” value was 58.6% and 56.1% and 50.9%; the Average repeat size is 178.5 number of repeats and 176.5 number of repeats and 177.5 number of repeats. Also, in the series on HD fibroblasts (CAG)180 (setting [4]), the “% Contraction” value was 28.8% and 30.8% and 34.0%; the “% Expansion” value is 12.6% and 13.1% and 15.1%. In addition, in the series with HT1080-(CAG)850 cells [1], the cell permeability entry is “cell-permeable and can enter the nuclei”. For the same substance, the “effect on cell proliferation (growth curves)” value with HT1080-(CAG)850 cells [2] is recorded as “lack of an effect upon cell proliferation”. In series [3], the “effect on R-loop processing products (contractions, expansions)” value is “significantly increasing the number of contraction products but not expansion products”. The “changes in the SPR intensity on NA binding” value with r(CAG)9 is recorded as 8 RU.

The record behind these values is US11672786B2, “Methods of treating diseases associated with repeat instability” (The Hospital for Sick Children, priority 2016, dated 2023).
